According to US6054429A (priority 1996, dated 2000):
Bridge positions count the residues as written; N and C are the ends. Square brackets hold non-standard residues; d marks the D form. Peptide text beside a SMILES is read from it. Hyp = O=C(O)[C@@H]1C[C@@H](O)CN1

Target: calcium channels in N1E115 mouse neuroblastoma cells (Mus musculus, UniProt O55017)
Assay type: cell-based

Chain of calcium channels in N1E115 mouse neuroblastoma cells (O55017 whole entry): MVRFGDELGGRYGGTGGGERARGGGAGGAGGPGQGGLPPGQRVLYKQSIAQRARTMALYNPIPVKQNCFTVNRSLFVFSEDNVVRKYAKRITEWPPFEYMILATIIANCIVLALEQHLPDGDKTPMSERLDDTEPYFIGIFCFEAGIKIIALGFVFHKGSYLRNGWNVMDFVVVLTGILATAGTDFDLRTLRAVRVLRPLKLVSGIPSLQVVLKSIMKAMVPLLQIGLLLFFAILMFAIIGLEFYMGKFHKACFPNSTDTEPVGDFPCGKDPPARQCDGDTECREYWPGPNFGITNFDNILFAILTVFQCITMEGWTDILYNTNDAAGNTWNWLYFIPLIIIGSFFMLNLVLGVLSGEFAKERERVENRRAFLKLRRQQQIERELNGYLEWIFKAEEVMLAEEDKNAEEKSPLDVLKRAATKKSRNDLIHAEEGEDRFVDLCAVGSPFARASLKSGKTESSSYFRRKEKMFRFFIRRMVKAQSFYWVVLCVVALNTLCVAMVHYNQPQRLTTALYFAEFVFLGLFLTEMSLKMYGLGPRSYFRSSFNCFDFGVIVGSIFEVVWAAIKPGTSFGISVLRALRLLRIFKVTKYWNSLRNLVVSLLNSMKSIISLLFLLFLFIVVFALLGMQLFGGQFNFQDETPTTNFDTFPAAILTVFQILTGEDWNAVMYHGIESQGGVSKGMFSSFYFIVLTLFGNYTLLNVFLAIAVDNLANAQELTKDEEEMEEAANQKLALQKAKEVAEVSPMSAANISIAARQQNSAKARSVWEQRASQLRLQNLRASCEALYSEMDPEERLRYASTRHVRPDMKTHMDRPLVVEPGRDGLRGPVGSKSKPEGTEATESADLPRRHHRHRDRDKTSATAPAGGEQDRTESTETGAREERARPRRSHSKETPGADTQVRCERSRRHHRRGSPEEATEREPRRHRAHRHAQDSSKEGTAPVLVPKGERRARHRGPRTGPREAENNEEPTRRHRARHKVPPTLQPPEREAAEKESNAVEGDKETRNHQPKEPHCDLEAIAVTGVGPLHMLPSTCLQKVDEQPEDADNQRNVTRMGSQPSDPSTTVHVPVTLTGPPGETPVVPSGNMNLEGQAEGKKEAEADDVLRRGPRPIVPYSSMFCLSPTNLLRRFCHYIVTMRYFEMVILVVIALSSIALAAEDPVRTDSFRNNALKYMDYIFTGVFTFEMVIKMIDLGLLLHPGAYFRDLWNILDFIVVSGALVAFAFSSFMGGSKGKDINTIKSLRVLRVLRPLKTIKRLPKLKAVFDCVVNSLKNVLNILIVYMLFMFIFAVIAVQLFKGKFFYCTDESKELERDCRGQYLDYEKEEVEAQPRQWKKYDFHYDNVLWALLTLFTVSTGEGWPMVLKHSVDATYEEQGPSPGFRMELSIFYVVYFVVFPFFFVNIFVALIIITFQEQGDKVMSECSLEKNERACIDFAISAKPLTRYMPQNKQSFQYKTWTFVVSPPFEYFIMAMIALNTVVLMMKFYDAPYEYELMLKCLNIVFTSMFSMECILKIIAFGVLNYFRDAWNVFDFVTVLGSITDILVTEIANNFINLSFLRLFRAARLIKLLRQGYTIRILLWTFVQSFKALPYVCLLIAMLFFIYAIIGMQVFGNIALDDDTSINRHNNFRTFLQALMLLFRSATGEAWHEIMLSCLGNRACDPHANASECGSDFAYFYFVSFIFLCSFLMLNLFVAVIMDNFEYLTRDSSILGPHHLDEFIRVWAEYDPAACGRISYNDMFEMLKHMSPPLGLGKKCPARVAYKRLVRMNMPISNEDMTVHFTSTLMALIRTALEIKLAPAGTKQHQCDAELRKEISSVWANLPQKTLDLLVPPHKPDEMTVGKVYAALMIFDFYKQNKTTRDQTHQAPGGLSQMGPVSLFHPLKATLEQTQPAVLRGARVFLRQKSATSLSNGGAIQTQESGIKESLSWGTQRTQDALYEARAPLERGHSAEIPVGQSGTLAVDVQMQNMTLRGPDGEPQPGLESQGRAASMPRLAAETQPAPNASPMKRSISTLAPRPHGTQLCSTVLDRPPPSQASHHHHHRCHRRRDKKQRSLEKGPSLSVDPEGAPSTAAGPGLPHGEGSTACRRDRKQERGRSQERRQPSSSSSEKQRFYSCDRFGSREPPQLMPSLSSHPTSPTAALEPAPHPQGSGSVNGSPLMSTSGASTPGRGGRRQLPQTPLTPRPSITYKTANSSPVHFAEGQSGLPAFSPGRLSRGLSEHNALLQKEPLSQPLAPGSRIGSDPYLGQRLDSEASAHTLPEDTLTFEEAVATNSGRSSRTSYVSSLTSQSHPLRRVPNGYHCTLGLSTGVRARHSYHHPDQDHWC
Chain of calcium channels in N1E115 mouse neuroblastoma cells (P54285 whole entry partner): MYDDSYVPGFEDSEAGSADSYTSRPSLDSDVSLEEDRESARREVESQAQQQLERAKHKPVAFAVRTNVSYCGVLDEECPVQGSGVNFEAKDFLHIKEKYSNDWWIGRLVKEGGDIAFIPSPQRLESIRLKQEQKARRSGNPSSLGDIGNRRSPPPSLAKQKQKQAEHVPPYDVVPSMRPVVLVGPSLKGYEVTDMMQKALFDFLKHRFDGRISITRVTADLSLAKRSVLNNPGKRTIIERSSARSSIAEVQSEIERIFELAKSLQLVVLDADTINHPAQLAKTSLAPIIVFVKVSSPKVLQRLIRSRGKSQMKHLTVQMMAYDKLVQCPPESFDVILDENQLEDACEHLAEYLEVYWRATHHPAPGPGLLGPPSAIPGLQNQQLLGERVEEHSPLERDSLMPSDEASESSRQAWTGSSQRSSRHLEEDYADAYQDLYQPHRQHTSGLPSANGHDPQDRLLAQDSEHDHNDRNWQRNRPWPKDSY
Chain of calcium channels in N1E115 mouse neuroblastoma cells (O08532 25-956 partner limits assumed): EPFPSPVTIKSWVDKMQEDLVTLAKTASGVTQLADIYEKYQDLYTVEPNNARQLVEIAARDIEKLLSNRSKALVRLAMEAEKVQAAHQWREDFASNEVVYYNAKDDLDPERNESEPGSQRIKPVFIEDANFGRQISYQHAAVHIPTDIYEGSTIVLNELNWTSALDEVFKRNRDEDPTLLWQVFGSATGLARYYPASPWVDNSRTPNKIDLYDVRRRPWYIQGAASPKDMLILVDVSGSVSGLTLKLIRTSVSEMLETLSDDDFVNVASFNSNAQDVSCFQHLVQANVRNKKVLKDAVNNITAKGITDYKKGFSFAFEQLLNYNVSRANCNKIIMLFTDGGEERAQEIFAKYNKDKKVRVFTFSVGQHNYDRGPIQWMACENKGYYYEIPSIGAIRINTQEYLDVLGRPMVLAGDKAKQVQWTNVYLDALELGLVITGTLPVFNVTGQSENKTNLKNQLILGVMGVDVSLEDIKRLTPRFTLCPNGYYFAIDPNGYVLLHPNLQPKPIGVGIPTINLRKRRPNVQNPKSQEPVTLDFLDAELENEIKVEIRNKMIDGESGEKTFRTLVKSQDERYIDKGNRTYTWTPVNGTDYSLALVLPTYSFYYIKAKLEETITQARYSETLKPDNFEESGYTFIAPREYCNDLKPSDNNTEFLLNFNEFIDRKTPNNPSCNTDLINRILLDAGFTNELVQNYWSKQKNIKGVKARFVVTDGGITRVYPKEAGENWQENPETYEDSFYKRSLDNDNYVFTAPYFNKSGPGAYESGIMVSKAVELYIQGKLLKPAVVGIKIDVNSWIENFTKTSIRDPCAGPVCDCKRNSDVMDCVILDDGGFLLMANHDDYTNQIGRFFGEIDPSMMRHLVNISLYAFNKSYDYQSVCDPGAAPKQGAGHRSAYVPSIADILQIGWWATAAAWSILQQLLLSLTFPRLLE
Chain of calcium channels in N1E115 mouse neuroblastoma cells (O08532 957-1103 partner limits assumed): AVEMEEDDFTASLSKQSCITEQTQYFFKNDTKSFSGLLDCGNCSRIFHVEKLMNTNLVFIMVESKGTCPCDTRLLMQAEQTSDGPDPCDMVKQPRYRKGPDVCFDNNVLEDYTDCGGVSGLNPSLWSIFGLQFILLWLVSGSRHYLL

CC[C@H](C)[C@@H]1NC(=O)[C@H](CO)NC(=O)[C@H]([C@@H](C)O)NC(=O)[C@H](C(C)C)NC(=O)CNC(=O)[C@@H]2CSSC[C@@H]3NC(=O)[C@H](CCCNC(=N)N)NC(=O)CNC(=O)[C@H](CSSC[C@H](N)C(=O)N[C@@H](CCCNC(=N)N)C(=O)N[C@@H](CO)C(=O)N[C@@H](CO)C(=O)NCC(=O)N[C@@H](CO)C(=O)N4C[C@H](O)C[C@H]4C(=O)N2)NC(=O)[C@H](CSSC[C@@H](C(=O)N[C@H](C(N)=O)[C@@H](C)O)NC(=O)[C@H](CCCCN)NC(=O)CNC(=O)[C@H](CCCNC(=N)N)NC(=O)[C@H](Cc2ccc(O)cc2)NC3=O)NC1=O [SNX-157] (H-CRSSGS[Hyp]CGVTSICCGRCYRGKCT-NH2; disulfide 1-15, 8-18, 14-23)
IC50 for calcium current (in words): not measurable within the range of concentrations tested
